Like-named read-outs stand apart in the source and are kept apart here.
Test system: Multidrug resistant Acinetobacter Baumannii, (MRAB)
Experiment: microbe, parasite or virus in culture

NCC[C@H](O)C(=O)N[C@@H]1C[C@H](N)[C@@H](O[C@H]2O[C@H](CN)[C@@H](O)[C@H](O)[C@H]2O)[C@H](O)[C@H]1O[C@H]1O[C@H](CO)[C@@H](O)[C@H](N)[C@H]1O [AMI, Amikacin]
viability at 4 µg/mL (read-out: % bacterial viability, MRAB 1 014754 Urine, AMI 4 μg/ml): 35.9%
viability at 12 µg/mL (read-out: % bacterial viability, MRAB 1 014754 Urine, AMI 12 μg/ml): 24.5%
viability at 20 µg/mL (read-out: % bacterial viability, MRAB 1 014754 Urine, AMI 20 μg/ml): 14.7%
viability at 4 µg/mL (read-out: % bacterial viability, MRAB 2 014801 Catheter, AMI 4 μg/ml): 36%
viability at 12 µg/mL (read-out: % bacterial viability, MRAB 2 014801 Catheter, AMI 12 μg/ml): 14.1%
viability at 20 µg/mL (read-out: % bacterial viability, MRAB 2 014801 Catheter, AMI 20 μg/ml): 8.36%
viability at 4 µg/mL (read-out: % bacterial viability, MRAB 3 015069 Skin, AMI 4 μg/ml): 66.6%
viability at 12 µg/mL (read-out: % bacterial viability, MRAB 3 015069 Skin, AMI 12 μg/ml): 48.6%
viability at 20 µg/mL (read-out: % bacterial viability, MRAB 3 015069 Skin, AMI 20 μg/ml): 41.7%
viability at 4 µg/mL (read-out: % bacterial viability, MRAB 4 015095 Hospital Environ, AMI 4 μg/ml): 66.4%
viability at 12 µg/mL (read-out: % bacterial viability, MRAB 4 015095 Hospital Environ, AMI 12 μg/ml): 42.9%
viability at 20 µg/mL (read-out: % bacterial viability, MRAB 4 015095 Hospital Environ, AMI 20 μg/ml): 33.9%
viability at 4 µg/mL (read-out: % bacterial viability, MRAB 5 015103 Hospital Environ, AMI 4 μg/ml): 65.2%
viability at 12 µg/mL (read-out: % bacterial viability, MRAB 5 015103 Hospital Environ, AMI 12 μg/ml): 26.9%
viability at 20 µg/mL (read-out: % bacterial viability, MRAB 5 015103 Hospital Environ, AMI 20 μg/ml): 24.6%
viability at 4 µg/mL (read-out: % bacterial viability, MRAB 12 016419 Catheter, AMI 4 μg/ml): 49.7%
viability at 12 µg/mL (read-out: % bacterial viability, MRAB 12 016419 Catheter, AMI 12 μg/ml): 22.7%
viability at 20 µg/mL (read-out: % bacterial viability, MRAB 12 016419 Catheter, AMI 20 μg/ml): 19.8%

— US20200016231A1, “BIOFILM DISRUPTING COMPOSITION” (Whiteley Corporation Pty Ltd, priority 2016, published 2020)
